Target: recombinant human HPK1 (Homo sapiens (Human), UniProt Q92918)
Test: HPK1 kinase assay (ADP-Glo)
Assay type: biochemical
Settings: 25 μM ATP, MBP substrate
How it was run: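 Activity was read as ADP formed, detected by ADP-Glo luminescence after the reaction of 5 ng recombinant human HPK1 with MBP and ATP (stocks 0.5 μg/μl and 25 μM) for 40 min at 30 °C. Buffer was Tris pH 7.5 with MgCl2, BSA and DTT, with compound in 0.5% DMSO. IC50 came from inhibition curves.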

recombinant human HPK1, sequence (Q92918 whole entry): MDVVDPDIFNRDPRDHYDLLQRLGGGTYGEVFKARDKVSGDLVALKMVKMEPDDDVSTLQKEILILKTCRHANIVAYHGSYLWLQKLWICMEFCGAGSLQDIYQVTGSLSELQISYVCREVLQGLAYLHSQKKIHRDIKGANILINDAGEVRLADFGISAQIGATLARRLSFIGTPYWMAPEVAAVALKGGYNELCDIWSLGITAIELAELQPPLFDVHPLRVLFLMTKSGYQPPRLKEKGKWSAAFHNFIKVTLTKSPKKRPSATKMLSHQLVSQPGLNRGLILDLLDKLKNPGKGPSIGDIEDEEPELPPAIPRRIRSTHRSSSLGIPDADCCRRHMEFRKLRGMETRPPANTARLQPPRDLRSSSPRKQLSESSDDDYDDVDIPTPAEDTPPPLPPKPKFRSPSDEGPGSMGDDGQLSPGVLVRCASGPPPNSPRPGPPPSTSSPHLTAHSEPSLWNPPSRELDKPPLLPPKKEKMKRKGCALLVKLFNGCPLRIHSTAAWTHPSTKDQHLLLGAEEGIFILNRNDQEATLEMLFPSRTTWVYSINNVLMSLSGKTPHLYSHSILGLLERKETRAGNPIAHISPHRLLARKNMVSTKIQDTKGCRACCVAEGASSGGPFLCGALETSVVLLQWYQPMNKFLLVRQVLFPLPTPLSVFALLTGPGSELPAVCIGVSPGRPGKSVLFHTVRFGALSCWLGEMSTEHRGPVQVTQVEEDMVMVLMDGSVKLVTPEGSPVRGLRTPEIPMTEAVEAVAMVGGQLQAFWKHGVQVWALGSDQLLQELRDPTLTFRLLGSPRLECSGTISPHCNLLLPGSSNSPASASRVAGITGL

Structure (SMILES)	IC50
CNc1c(F)c(Cl)c(-c2ccn3nc(NC(=O)[C@@H]4C[C@@H]4F)cc3c2)c2cn[nH]c12 [Example 494, (1S,2S)-N-(5-(5-chloro-6-fluoro-7-(methylamino)-1H-indazol-4-yl)pyrazolo[1,5-a]pyridin-2-yl)-2-fluorocyclopropane-1-carboxamide]	< 0.1 µM
CN1CCN(c2c(F)c(Cl)c(-c3ccn4nc(NC(=O)[C@@H]5C[C@@H]5F)cc4c3)c3cn[nH]c23)CC1 [Example 495, (1S,2S)-N-(5-(5-chloro-6-fluoro-7-(4-methylpiperazin-1-yl)-1H-indazol-4-yl)pyrazolo[1,5-a]pyridin-2-yl)-2-fluorocyclopropane-1-carboxamide]	< 0.1 µM
CCNc1c(F)c(Cl)c(-c2ccn3nc(NC(=O)[C@@H]4C[C@@H]4F)cc3c2)c2cn[nH]c12 [Example 496, (1S,2S)-N-(5-(5-chloro-7-(ethylamino)-6-fluoro-1H-indazol-4-yl)pyrazolo[1,5-a]pyridin-2-yl)-2-fluorocyclopropane-1-carboxamide]	< 0.1 µM
CCN(CC)c1c(F)c(Cl)c(-c2ccn3nc(NC(=O)[C@@H]4C[C@@H]4F)cc3c2)c2cn[nH]c12 [Example 497, (1S,2S)-N-(5-(5-chloro-7-(diethylamino)-6-fluoro-1H-indazol-4-yl)pyrazolo[1,5-a]pyridin-2-yl)-2-fluorocyclopropane-1-carboxamide]	< 0.1 µM
O=C(Nc1cc2cc(-c3c(Cl)c(F)c(N4CCOCC4)c4[nH]ncc34)ccn2n1)[C@@H]1C[C@@H]1F [Example 498, (1S,2S)-N-(5-(5-chloro-6-fluoro-7-morpholino-1H-indazol-4-yl)pyrazolo[1,5-a]pyridin-2-yl)-2-fluorocyclopropane-1-carboxamide]	< 0.1 µM
O=C(Nc1cc2cc(-c3c(Cl)c(F)c(N4CCCC4)c4[nH]ncc34)ccn2n1)[C@@H]1C[C@@H]1F [Example 499, (1S,2S)-N-(5-(5-chloro-6-fluoro-7-(pyrrolidin-1-yl)-1H-indazol-4-yl)pyrazolo[1,5-a]pyridin-2-yl)-2-fluorocyclopropane-1-carboxamide]	< 0.1 µM
O=C(Nc1cc2cc(-c3c(Cl)c(F)c(N4CCNCC4)c4[nH]ncc34)ccn2n1)[C@@H]1C[C@@H]1F [Example 500, (1S,2S)-N-(5-(5-chloro-6-fluoro-7-(piperazin-1-yl)-1H-indazol-4-yl)pyrazolo[1,5-a]pyridin-2-yl)-2-fluorocyclopropane-1-carboxamide]	0.101 to 0.5 µM
O=C(Nc1cc2cc(-c3c(Cl)c(F)c(N4CCC4)c4[nH]ncc34)ccn2n1)[C@@H]1C[C@@H]1F [Example 501, (1S,2S)-N-(5-(7-(azetidin-1-yl)-5-chloro-6-fluoro-1H-indazol-4-yl)pyrazolo[1,5-a]pyridin-2-yl)-2-fluorocyclopropane-1-carboxamide]	< 0.1 µM
CN(C)C1CCC(N(C)c2c(F)c(Cl)c(-c3ccn4nc(NC(=O)[C@@H]5C[C@@H]5F)cc4c3)c3cn[nH]c23)CC1 (stereo partly drawn) [Example 502, (1S,2S)-N-(5-(5-chloro-7-((4-(dimethylamino)cyclohexyl)(methyl)amino)-6-fluoro-1H-indazol-4-yl)pyrazolo[1,5-a]pyridin-2-yl)-2-fluorocyclopropane-1-carboxamide]	< 0.1 µM
CNC1CCC(N(C)c2c(F)c(Cl)c(-c3ccn4nc(NC(=O)[C@@H]5C[C@@H]5F)cc4c3)c3cn[nH]c23)CC1 (stereo partly drawn) [Example 504, (1S,2S)-N-(5-(5-chloro-6-fluoro-7-(methyl((1R,4R)-4-(methylamino)cyclohexyl)amino)-1H-indazol-4-yl)pyrazolo[1,5-a]pyridin-2-yl)-2-fluorocyclopropane-1-carboxamide]	< 0.1 µM
CNC1CCC(N(C)c2c(F)c(Cl)c(-c3ccn4nc(NC(=O)[C@@H]5C[C@@H]5F)cc4c3)c3cn[nH]c23)CC1 (stereo partly drawn) [Example 505, (1S,2S)-N-(5-(5-chloro-6-fluoro-7-(methyl((1S,4S)-4-(methylamino)cyclohexyl)amino)-1H-indazol-4-yl)pyrazolo[1,5-a]pyridin-2-yl)-2-fluorocyclopropane-1-carboxamide]	< 0.1 µM
COc1cc(C)c(-c2ccn3nc(NC(=O)[C@@H]4C[C@@H]4F)cc3c2)c2cn[nH]c12 [Example 506, (1S,2S)-2-fluoro-N-(5-(7-methoxy-5-methyl-1H-indazol-4-yl)pyrazolo[1,5-a]pyridin-2-yl)cyclopropane-1-carboxamide]	< 0.1 µM
O=C(Nc1cc2cc(-c3c(Cl)c(F)c(OCC4CCCO4)c4[nH]ncc34)ccn2n1)[C@@H]1C[C@@H]1F (stereo partly drawn) [Example 507, (1S,2S)-N-(5-(5-chloro-6-fluoro-7-((tetrahydrofuran-2-yl)methoxy)-1H-indazol-4-yl)pyrazolo[1,5-a]pyridin-2-yl)-2-fluorocyclopropane-1-carboxamide]	< 0.1 µM
CNC1CCC(Nc2c(F)c(Cl)c(-c3ccn4nc(NC(=O)[C@@H]5C[C@@H]5F)cc4c3)c3cn[nH]c23)CC1 (stereo partly drawn) [Example 508, (1S,2S)-N-(5-(5-chloro-6-fluoro-7-((4-(methylamino)cyclohexyl)amino)-1H-indazol-4-yl)pyrazolo[1,5-a]pyridin-2-yl)-2-fluorocyclopropane-1-carboxamide]	< 0.1 µM
Nc1c(F)c(Cl)c(-c2ccn3nc(NC(=O)[C@@H]4C[C@@H]4F)cc3c2)c2cn[nH]c12 [Example 510, (1S,2S)-N-(5-(7-amino-5-chloro-6-fluoro-1H-indazol-4-yl)pyrazolo[1,5-a]pyridin-2-yl)-2-fluorocyclopropane-1-carboxamide]	< 0.1 µM
CCOc1cc(C)c(-c2ccn3nc(NC(=O)[C@@H]4C[C@@H]4F)cc3c2)c2cn[nH]c12 [Example 511, (1S,2S)-N-(5-(7-ethoxy-5-methyl-1H-indazol-4-yl)pyrazolo[1,5-a]pyridin-2-yl)-2-fluorocyclopropane-1-carboxamide]	< 0.1 µM

More lines, now with the values ahead:

IC50	Structure (SMILES)
< 0.1 µM	Cc1c(F)c(Cl)c2[nH]ncc2c1-c1ccn2nc(NC(=O)[C@@H]3C[C@@H]3F)cc2c1 [Example 479, (1S,2S)-N-(5-(7-chloro-6-fluoro-5-methyl-1H-indazol-4-yl)pyrazolo[1,5-a]pyridin-2-yl)-2-fluorocyclopropane-1-carboxamide]
< 0.1 µM	O=C(Nc1cc2cc(-c3c(Cl)c(F)c(Br)c4[nH]ncc34)ccn2n1)[C@@H]1C[C@@H]1F [Example 480, (1S,2S)-N-(5-(7-bromo-5-chloro-6-fluoro-1H-indazol-4-yl)pyrazolo[1,5-a]pyridin-2-yl)-2-fluorocyclopropane-1-carboxamide]
< 0.1 µM	Cc1c(F)c(F)c2[nH]ncc2c1-c1ccn2nc(NC(=O)[C@@H]3C[C@@H]3F)cc2c1 [Example 481, (1S,2S)-N-(5-(6,7-difluoro-5-methyl-1H-indazol-4-yl)pyrazolo[1,5-a]pyridin-2-yl)-2-fluorocyclopropane-1-carboxamide]
< 0.1 µM	Cc1c(F)c(C(F)(F)F)c2[nH]ncc2c1-c1ccn2nc(NC(=O)[C@@H]3C[C@@H]3F)cc2c1 [Example 482, (1S,2S)-2-fluoro-N-(5-(6-fluoro-5-methyl-7-(trifluoromethyl)-1H-indazol-4-yl)pyrazolo[1,5-a]pyridin-2-yl)cyclopropane-1-carboxamide]
< 0.1 µM	C=Cc1cc(C)c(-c2ccn3nc(NC(=O)[C@@H]4C[C@@H]4F)cc3c2)c2cn[nH]c12 [Example 483, (1S,2S)-2-fluoro-N-(5-(5-methyl-7-vinyl-1H-indazol-4-yl)pyrazolo[1,5-a]pyridin-2-yl)cyclopropane-1-carboxamide]
< 0.1 µM	CSc1c(F)c(Cl)c(-c2ccn3nc(NC(=O)[C@@H]4C[C@@H]4F)cc3c2)c2cn[nH]c12 [Example 485, (1S,2S)-N-(5-(5-chloro-6-fluoro-7-(methylthio)-1H-indazol-4-yl)pyrazolo[1,5-a]pyridin-2-yl)-2-fluorocyclopropane-1-carboxamide]
< 0.1 µM	CS(=O)(=O)c1c(F)c(Cl)c(-c2ccn3nc(NC(=O)[C@@H]4C[C@@H]4F)cc3c2)c2cn[nH]c12 [Example 486, (1S,2S)-N-(5-(5-chloro-6-fluoro-7-(methylsulfonyl)-1H-indazol-4-yl)pyrazolo[1,5-a]pyridin-2-yl)-2-fluorocyclopropane-1-carboxamide]
< 0.1 µM	Cc1c(F)c(Br)c2[nH]ncc2c1-c1ccn2nc(NC(=O)[C@@H]3C[C@@H]3F)cc2c1 [Example 487, (1S,2S)-N-(5-(7-bromo-6-fluoro-5-methyl-1H-indazol-4-yl)pyrazolo[1,5-a]pyridin-2-yl)-2-fluorocyclopropane-1-carboxamide]
< 0.1 µM	Cc1c(F)c(S(C)(=O)=O)c2[nH]ncc2c1-c1ccn2nc(NC(=O)[C@@H]3C[C@@H]3F)cc2c1 [Example 489, (1S,2S)-2-fluoro-N-(5-(6-fluoro-5-methyl-7-(methylsulfonyl)-1H-indazol-4-yl)pyrazolo[1,5-a]pyridin-2-yl)cyclopropane-1-carboxamide]
< 0.1 µM	Cc1c(F)c(N(C)C)c2[nH]ncc2c1-c1ccn2nc(NC(=O)[C@@H]3C[C@@H]3F)cc2c1 [Example 490, (1S,2S)-N-(5-(7-(dimethylamino)-6-fluoro-5-methyl-1H-indazol-4-yl)pyrazolo[1,5-a]pyridin-2-yl)-2-fluorocyclopropane-1-carboxamide]
< 0.1 µM	COc1c(F)c(C)c(-c2ccn3nc(NC(=O)[C@@H]4C[C@@H]4F)cc3c2)c2cn[nH]c12 [Example 491, (1S,2S)-2-fluoro-N-(5-(6-fluoro-7-methoxy-5-methyl-1H-indazol-4-yl)pyrazolo[1,5-a]pyridin-2-yl)cyclopropane-1-carboxamide]
< 0.1 µM	COc1c(F)c(Cl)c(-c2ccn3nc(NC(=O)[C@@H]4C[C@@H]4F)cc3c2)c2cn[nH]c12 [Example 492, (1S,2S)-N-(5-(5-chloro-6-fluoro-7-methoxy-1H-indazol-4-yl)pyrazolo[1,5-a]pyridin-2-yl)-2-fluorocyclopropane-1-carboxamide]
< 0.1 µM	CCOc1c(F)c(Cl)c(-c2ccn3nc(NC(=O)[C@@H]4C[C@@H]4F)cc3c2)c2cn[nH]c12 [Example 493, (1S,2S)-N-(5-(5-chloro-7-ethoxy-6-fluoro-1H-indazol-4-yl)pyrazolo[1,5-a]pyridin-2-yl)-2-fluorocyclopropane-1-carboxamide]
